Where two headings read alike, the source gives them in different places.
Experiments:
[1] = system: HCT116; assay: colorimetric cell growth test, medication incubated 48 hours; details: for IC50: read-out: IC50 (concentration that reduces cell growth by 50%); for relative resistance (IC50 resistant clone / IC50 parental clone): HCT116 (parental clone)
[2] = system: HCT116/R; assay: as above; details: for crossed resistance: HCT116R versus HCT116; for IC50: read-out: IC50 (concentration that reduces cell growth by 50%); for relative resistance (IC50 resistant clone / IC50 parental clone): HCT116/R versus HCT116
[3] = system: SW620/R; assay: as above; details: for IC50: read-out: IC50 (concentration that reduces cell growth by 50%); for crossed resistance: SW620R versus SW620; for relative resistance (IC50 resistant clone / IC50 parental clone): SW620/R versus SW620
[4] = system: SW620; assay: as above; details: for IC50: read-out: IC50 (concentration that reduces cell growth by 50%); for relative resistance (IC50 resistant clone / IC50 parental clone): SW620 (parental clone)
[5] = system: Bax in HCT116/R1 cells; assay: overall level of Bax expression on exposure to oxaliplatin; format: cell-based
Text: (§1) The overall level of Bax expression is equivalent for the lines HCT116/S, HCT116/R1 and HCT116/Rev1.

[6] = system: Bax in HCT116/S cells; assay: as above; format: cell-based
Text: as §1

[7] = system: Bax in HCT116/Rev1 cells; assay: as above; format: cell-based
Text: as §1

[8] = system: HCT116/Rev2; assay: oxaliplatin resistance of variant line versus HCT116/S; format: cell-based; details: HCT116/Rev2, after culture without oxaliplatin for 15 months
Text: the variant HCT116/Rev2 derived from the line HCT116/R2 after culture in the absence of oxaliplatin for 15 months. This variant is characterized by an only partial loss of oxaliplatin resistance (variant HCT116/Rev2 is 16 times more resistant than line HCT116/S).

[9] = system: Bak in HCT116/Rev2 cells; assay: Bak activation, active-conformation antibody, flow cytometry; format: cell-based; details: HCT116/Rev2, 12, 24 or 48 hours with 15 μM
Method: (§2) Legend to FIGS. 5A to 5E: Detection of activation of Bak by an antibody specific for the active conformation of Bak and intracellular analysis by flow cytometry. The cells are fixed, made permeable and then incubated with the antibody specific for the active conformation of […]. Finally visualization is carried out by incubation with the secondary antibody coupled to FITC. Labeling of untreated cells is shown by the curve in the fine black line. That of treated cells (12, 24 or 48 hours with 15 μM oxaliplatin) is shown by the curves in the thick black line. The appearance of strongly labeled cells (curves in the thick black line shifted to the right) gives evidence of activation of Bak. This experiment was reproduced two times.

[10] = system: Bak in HCT116/Rev1 cells; assay: as above; format: cell-based; details: HCT116/Rev1, 12, 24 or 48 hours with 15 μM
Method: as §2

[11] = system: Bak in HCT116/R2 cells; assay: as above; format: cell-based; details: HCT116/R2, 12, 24 or 48 hours with 15 μM
Method: as §2

[12] = system: Bak in HCT116/R1 cells; assay: as above; format: cell-based; details: HCT116/R1, 12, 24 or 48 hours with 15 μM
Method: as §2

[13] = system: Bax protein in HCT116R cells; assay: detection of Bax by Western blot; format: cell-based; details: 15 μM for 48 hours (or 50 μM for 24 hours)
Method: (§3) Legend to FIG. 1: detection of Bax by Western blot in the absence of, or under the effect of treatment, with oxaliplatin in the HCT116 model. The cells are not treated or treated with oxaliplatin at a level of 15 μM for 48 hours (or 50 μM for 24 hours) before preparation of cell lysates. Tubulin expression is used as a control of equivalent protein deposits.

[14] = system: Bax protein in HCT116 cells; assay: detection of Bax by Western blot; format: cell-based; details: HCT116, 15 μM for 48 hours (or 50 μM for 24 hours)
Method: as §3

[15] = system: Caspase 3 in HCT116R cells; assay: activation of apoptosis effector protein Caspase 3; format: cell-based; details: treated 24 hours
Method: (§4) A control is performed without contact with any medication (Co). The degree of apoptosis is then determined by cytofluorometry using labeling by annexine V. Independently, activation of the apoptosis effector protein Caspase 3 was evaluated in cells HCT116 and HCT116R after treatment for 24 hours with oxaliplatin in order to validate the entry into apoptosis of the cells as observed by cytofluorometry (FIG. 2C).

[16] = system: SW620R; assay: degree of apoptosis by cytofluorometry, annexine V labeling; format: cell-based; details: treated 48 hours
Method: as §4

[17] = system: HCT116/Rev1; assay: oxaliplatin sensitivity of variant line versus HCT116/S; format: cell-based; details: HCT116/Rev1, after culture without oxaliplatin for 6 months
Text: the variant HCT116/Rev1 derived from the line HCT116/R1 after culture in the absence of oxaliplatin for 6 months.

[18] = system: HCT116R; details: treated 48 hours
Method: A control is performed without contact with any medication (Co).

[19] = system: Bax in HCT116/R1 cells; assay: Bax activation, active-conformation antibody, flow cytometry; format: cell-based; details: HCT116/R1, 12, 24 or 48 hours with 15 μM, compared to HCT116/S
Method: (§5) Legend to FIGS. 4A to 4C: Detection of activation of Bax by an antibody specific for the active conformation of Bax and intracellular analysis by flow cytometry. The cells are fixed, permeabilized and then incubated with the antibody specific for the active conformation of […]. Finally visualization is carried out by incubation with the secondary antibody coupled with FITC. The labeling of untreated cells is shown by the curve in fine black line. That of treated cells (12, 24 or 48 hours with 15 μM oxaliplatin) is shown by the curves in thick black line. The appearance of strongly labeled cells (curves in thick black line shifted to the right) gives evidence of activation of Bax.

[20] = system: Bax in HCT116/Rev1 cells; assay: as above; format: cell-based; details: HCT116/Rev1, 12, 24 or 48 hours with 15 μM
Method: as §5

[21] = system: HCT116/R1; assay: oxaliplatin resistance of variant line versus HCT116/S; format: cell-based; details: HCT116/R1 clone
Text: the line HCT116/R1 derived from the line HCT116 after acquisition of oxaliplatin resistance and cloning (corresponding to a clone 30 times more resistant than the sensitive reference line HCT116/S),

[22] = system: HCT116R; assay: degree of apoptosis by cytofluorometry, Mitocapture dye; format: cell-based; details: treated 24 hours
Method: (§6) Legend to FIGS. 3A and 3B: cells HCT116 (and R) and SW620 (and R) are treated, prior to determination of the degree of apoptosis, for 24 hours by arsenic trioxide (As), lonidamine (LND) or are left without treatment (control, Co). The degree of apoptosis is then determined by cytofluorometry after labeling with the dye “Mitocapture” which fluoresces differently in apoptotic cells and intact cells (with relation to mitochondrial integrity).

[23] = system: SW620R; assay: as above; format: cell-based; details: treated 24 hours
Method: as §6

[24] = HCT116, 48 hours, average ± SD, at least three experiments
[25] = HCT116/R, 48 hours, average ± SD, at least three experiments
[26] = SW620/R, 48 hours, average ± SD, at least three experiments
[27] = SW620, 48 hours, average ± SD, at least three experiments

`CCc1c2c(nc3ccc(OC(=O)N4CCC(N5CCCCC5)CC4)cc13)-c1cc3c(c(=O)n1C2)COC(=O)[C@]3(O)CC` [Irinotecan] was tested, and the IC50 ([1]; Homo sapiens, HCT-116, 48 h) was 7.7 ± 3.8 µM, the crossed resistance [2] was “very little or no crossed resistance” and the IC50 ([2]; Homo sapiens, HCT-116, 48 h) was 9.5 ± 4.2 µM. The IC50 ([3]; Homo sapiens, SW-620, 48 h) was 11.7 ± 2.5 µM, the crossed resistance [3] was “very little or no crossed resistance” and the IC50 ([4]; Homo sapiens, SW-620, 48 h) was 23.3 ± 0.6 µM.

In the case of `N.N.[Cl][Pt][Cl]` [Cisplatin], the “relative resistance (IC50 resistant clone / IC50 parental clone)” value [1] is reported as “(1.0)”, the IC50 [1, 24] is reported as 4.7 ± 1.8 µM and the “relative resistance (IC50 resistant clone / IC50 parental clone)” value [2] is reported as “(2.9)”. For the same compound, the crossed resistance [2] was “very little or no crossed resistance”, the IC50 [2, 25] was 13.4 ± 6.6 µM and the “relative resistance (IC50 resistant clone / IC50 parental clone)” value [3] was “(1.4)”. For the same compound, the crossed resistance [3] was “very little or no crossed resistance”, the IC50 [3, 26] was 9 ± 1.7 µM and the “relative resistance (IC50 resistant clone / IC50 parental clone)” value [4] was “(1.0)”. For the same compound, the IC50 [4, 27] was 7 ± 1.7 µM.

`O=C1[O][Pt]2([NH][C@@H]3CCCC[C@H]3[NH]2)[O]C1=O` [Oxaliplatin, [(1R, 2R)-1,2-cyclohexanediamine-N,N′] [oxalato (2-)-O,O′] platinum] was tested, and the “overall level of Bax expression” value [5] was “induces an over-expression of Bax”, the “overall level of Bax expression” value [6] was “induces an over-expression of Bax” and the “overall level of Bax expression” value [7] was “induces an over-expression of Bax”. The “times more resistant than line HCT116/S” value [8] was 16 times, the “activation of Bak” value [9] was “repeat the level of activation of Bak of the sensitive line HCT116/S” and the “activation of Bak” value [10] was “repeat the level of activation of Bak of the sensitive line HCT116/S”. The “activation of Bak” value [11] was “delayed”, the “activation of Bak” value [12] was “delayed” and the “Bax protein expression (Western blot)” value [13] was “does not express the Bax protein”. For the same compound, the “Bax protein expression (Western blot)” value [14] was “over-expresses it”, the “activation of caspase 3” value [15] was “lack of activation of caspase 3” and the “relative resistance (IC50 resistant clone / IC50 parental clone)” value [1] was 1.0. For the same compound, the IC50 [1, 24] was 0.32 ± 0.08 µM, the “relative resistance (IC50 resistant clone / IC50 parental clone)” value [2] was 68.4 and the IC50 [2, 25] was 21.9 ± 6.3 µM. For the same compound, the “induction of apoptosis (annexine V)” value [16] was “resist induction of apoptosis”, the “relative resistance (IC50 resistant clone / IC50 parental clone)” value [3] was 18.3 and the “times more resistant than the original line” value ([3]; SW620R versus SW620, as stated in text) was 20 times. The IC50 [3, 26] was 62.3 ± 12.9 µM, the oxaliplatin sensitivity [17] was “comparable to HCT116/S” and the “induction of apoptosis (annexine V)” value [18] was “resist induction of apoptosis”. For the same compound, the “relative resistance (IC50 resistant clone / IC50 parental clone)” value [4] was 1.0, the IC50 [4, 27] was 3.4 ± 0.6 µM and the “activation of Bax” value [19] was “reduced and delayed”. The “activation of Bax” value [20] was “return to early activation of Bax” and the “times more resistant than sensitive reference line HCT116/S” value [21] was 30 times.

In the case of `O=C(O)c1nn(Cc2ccc(Cl)cc2Cl)c2ccccc12` [lonidamine], the “apoptotic induction (Mitocapture)” value [22] is reported as “resistant to apoptotic induction” and the “apoptotic induction (Mitocapture)” value [23] is reported as “resistant to apoptotic induction”.

Reference: US20060093575A1, “Oxaliplatin anti-resistance agent” (CENTRE NATIONAL DE LA RECHERCHE SCIENTIFIQUE, priority 2002, published 2006)
